Measurements as given in patent US8993309B2, “Predictive marker for topoisomerase I inhibitors” (Boston Medical Center Corporation, priority 2008, dated 2015).

Assays:
[1] = target: T1, topoI (Mus musculus, UniProt Q04750); assay: topoI down-regulation in response to CPT in DNA-PK deficient and efficient cells (anti-topoI immunoblot); type: cell-based
T1 construct: endogenous in cells; host or cells: ScH8 (DNA-PK +/+) and ScSv3 (DNA-PK -/-) mouse embryo fibroblasts
T1 sequence (Q04750 1-767): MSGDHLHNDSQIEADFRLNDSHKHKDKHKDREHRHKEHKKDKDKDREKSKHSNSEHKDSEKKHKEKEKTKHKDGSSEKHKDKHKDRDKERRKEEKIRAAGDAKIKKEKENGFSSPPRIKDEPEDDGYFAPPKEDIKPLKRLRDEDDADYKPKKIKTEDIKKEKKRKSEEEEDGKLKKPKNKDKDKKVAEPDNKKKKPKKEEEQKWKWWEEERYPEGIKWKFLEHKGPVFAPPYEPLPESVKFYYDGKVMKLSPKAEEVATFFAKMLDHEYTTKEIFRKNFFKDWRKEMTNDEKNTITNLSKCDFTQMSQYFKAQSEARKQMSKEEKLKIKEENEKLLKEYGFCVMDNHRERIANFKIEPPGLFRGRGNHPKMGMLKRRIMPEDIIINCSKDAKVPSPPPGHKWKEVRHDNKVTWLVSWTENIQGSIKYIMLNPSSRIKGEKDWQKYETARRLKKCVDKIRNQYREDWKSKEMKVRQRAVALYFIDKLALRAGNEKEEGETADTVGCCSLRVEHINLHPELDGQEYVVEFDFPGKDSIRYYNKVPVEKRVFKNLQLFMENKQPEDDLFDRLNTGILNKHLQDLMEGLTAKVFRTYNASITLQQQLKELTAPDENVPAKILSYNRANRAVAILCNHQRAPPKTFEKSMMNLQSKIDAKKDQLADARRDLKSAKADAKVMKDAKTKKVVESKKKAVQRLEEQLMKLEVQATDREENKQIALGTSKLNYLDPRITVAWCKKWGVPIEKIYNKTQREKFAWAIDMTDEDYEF
Method: (§1) Protein levels in FIG. 8A were determined by immuno blot analysis of cell lysate with anti-βactin.
(§2) Tissue Culture: Human cervical carcinoma (HeLa) cells, MCF-7 breast cancer cells, BT-474 breast cancer cells and Mouse embryo fibroblasts (MEF) reconstituted for stable expression of DNA-PK (ScH8) and […] MEF (ScSv3, DNA-PK −/−) were grown and maintained in Dulbecco's Modification of Eagle's Medium containing 10% fetal bovine serum, 2 mM L-Glutamine 100 units/mL of Streptomycin and 100 units/mL of Penicillin.
Cell Synchronization and Drug Treatment. MEF cells were phase-synchronized by serum starvation. Cells were incubated for 30 hours in Dulbecco's Modification of Eagle Medium containing 0.1% fetal bovine serum followed by 16 hour incubation in Medium containing 10% fetal bovine serum. Topo I inhibitor treatment was performed using a 25 μM concentration of Irinotecan (Sigma). Transient transfection of cell lines for BRCA1 and BARD1 expression was performed using the Geneporter 2 transfection kit (GenLantis).
Immunoprecipitation and immunoblot analysis: Cell lysates were prepared for immunoprecipitation and soluble proteins were incubated with anti-BRCA1 or anti-topoI (Topogen, Inc.). The immunoprecipitates were subjected to immunoblotting with anti-BRCA1 or anti-topoI. Antigen-antibody complexes were visualized by enhanced chemiluminescence (ECL detection system, GE, Piscataway, N.J.).

[2] = target: T2, topoI (Homo sapiens, UniProt P11387); assay: topoI down-regulation in BRCA1-silenced cells; type: cell-based; settings: BRCA1-silenced Hela cells
T2 construct: endogenous in cells
T2 sequence (P11387 1-765): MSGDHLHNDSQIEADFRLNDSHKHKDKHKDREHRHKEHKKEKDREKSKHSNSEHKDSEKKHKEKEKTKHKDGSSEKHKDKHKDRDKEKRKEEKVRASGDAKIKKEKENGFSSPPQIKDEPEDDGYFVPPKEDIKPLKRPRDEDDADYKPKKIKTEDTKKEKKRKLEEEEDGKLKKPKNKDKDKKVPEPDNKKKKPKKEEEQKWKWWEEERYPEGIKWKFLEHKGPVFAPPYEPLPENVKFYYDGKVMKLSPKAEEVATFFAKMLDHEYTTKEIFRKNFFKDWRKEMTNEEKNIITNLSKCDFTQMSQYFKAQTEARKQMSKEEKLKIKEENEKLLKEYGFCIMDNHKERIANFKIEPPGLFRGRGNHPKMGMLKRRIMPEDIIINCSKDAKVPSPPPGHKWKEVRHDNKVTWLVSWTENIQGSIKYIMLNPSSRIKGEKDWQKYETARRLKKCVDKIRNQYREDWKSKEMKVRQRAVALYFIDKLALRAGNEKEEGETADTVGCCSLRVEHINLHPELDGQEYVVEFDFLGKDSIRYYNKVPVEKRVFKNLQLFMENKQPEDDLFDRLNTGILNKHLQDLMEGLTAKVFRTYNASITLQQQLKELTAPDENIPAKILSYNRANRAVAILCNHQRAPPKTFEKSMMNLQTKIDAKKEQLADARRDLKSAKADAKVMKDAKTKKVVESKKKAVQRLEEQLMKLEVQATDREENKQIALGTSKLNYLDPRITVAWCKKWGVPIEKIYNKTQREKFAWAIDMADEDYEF

[3] = tested on: GFP-topoI and BRCA1; assay: co-immunostaining of GFP-topoI and BRCA1 after CPT treatment; type: cell-based; settings: in response to treatment with CPT
[4] = tested on: DNA-PK -/- cells; assay: cell death of DNA-PK -/- and DNA-PK +/+ cells in response to CPT; type: cell-based, Mouse; settings: DNA-PK -/- cells compared to DNA-PK +/+ cells, in response to CPT (FIG. 8C)
Method: as §1, §2

[5] = tested on: leukemia L-1210; settings: experimentally transplanted leukemia L-1210 in mice; cited from earlier work
[6] = tested on: Walker 256 tumor; settings: experimentally transplanted Walker 256 tumor in rats; cited from earlier work
[7] = tested on: biosynthesis of nucleic acids; settings: cited from earlier work
[8] = target: T3, DNA-PK (Homo sapiens, UniProt P78527); assay: CPT induced topoI downregulation in HeLa cells with or without DNA-PK inhibitor (anti-topoI immunoblot); type: cell-based; settings: CPT treatment plus DNA-PK inhibitor (FIG. 9)
T3 construct: endogenous in cells; host or cells: HeLa
Method: Protein levels were determined by immuno blot analysis of cell lysate with anti-β actin.

[9] = tested on: HIV-1; settings: acute and chronic infections, in vitro; cited from earlier work

SMILES: CC[C@@]1(O)C(=O)OCc2c1cc1n(c2=O)Cc2cc3ccccc3nc2-1 [CPT, camptothecin]
- rate of topoI down-regulation in response to CPT ([1]; DNA-PK +/+ cells compared with DNA-PK deficient cells): significantly higher rate of topoI down-regulation in DNA-PK +/+ cells
- degradation of topoI ([1]; ScH8 cells (DNA-PK +/+) treated with CPT, six hours): complete degradation
- topoI remained intact ([1]; ScSV3 cells (DNA-PK -/-) treated with CPT, six hours): more than 50%
- rate of topoI down-regulation [2]: decrease in the rate of topoI down-regulation
- localization of GFP-topoI and BRCA1 [3]: colocalized in DNA repair foci
- percentage of cell death [4]: higher percentage of cell death
- anti-tumor activity [5]: potent anti-tumor activity
- anti-tumor activity [6]: potent anti-tumor activity
- inhibitory activity toward the biosynthesis of nucleic acids [7]: strong inhibitory activity

SMILES: O=c1cc(N2CCOCC2)oc2c1ccc1ccccc12 [NU7026]
- effect on CPT induced topoI downregulation by UPP [8]: obliterates CTP induced topoI downregulation

SMILES: CC[C@@]1(O)C(=O)OCc2c1cc1n(c2=O)Cc2cc3c(CN(C)C)c(O)ccc3nc2-1 [Topotecan]
- inhibition of HIV-1 infections [9]: inhibit both acute and chronic HIV-1 infections
